The source of these data is patent publication US12390437B2, “Itaconic acid derivatives and uses thereof intreating an inflammatory disease or a disease associated with an undesirable immune response” (Sitryx Therapeutics Limited, priority 2019, dated 2025).

Series [1] deals with IL-1β cytokine output from THP-1s. The series is described as follows: THP-1 AlphaLISA IL-1β cytokine assay. The class given is cell-based, human. As to conditions: Homo sapiens, THP-1, PMA-differentiated THP-1 cells, LPS 24 hr then Nigericin 1 hour; read-out: IL-1β (IC50). The method in brief:
(§1)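 PMA-differentiated (72 h) THP-1 cells pretreated 30 min with compound, LPS-stimulated 24 h, then nigericin 1 h at 37 °C. Supernatant IL-1β and IL-6 by AlphaLISA; % inhibition normalised to ±LPS controls, IC50 from concentration-response curves.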

For series [2], the system named is IL-6 cytokine output from THP-1s. In words: THP-1 AlphaLISA IL-6 cytokine assay. It is filed as cell-based, human. The conditions noted are these: Homo sapiens; PMA-differentiated THP-1 cells, LPS 24 hr then Nigericin 1 hour. The method in brief: as §1
(In general: Bead proximity is the source of the signal in Alpha formats.)

Series [3] can be described thus: Mouse pharmacokinetic study, intravenous dosing. It is filed as in vivo. As to conditions: male, C57BL/6, mouse, iv, plasma, 10 mg/kg i.v., read-out: Parent compound concentration following intravenous administration. The method in brief:
(§2)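 Male C57BL/6 mice (6-8 weeks, fed ad libitum) received 10 mg/kg IV by tail vein in 10% DMSO/HP-β-CD vehicle, or 100 mg/kg by oral gavage in DMSO/HPMC/Tween 80. Facial-vein blood was taken at 9 time points (N=3 each) into K2EDTA; plasma concentrations were measured by LC-MS/MS.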

Series [4] is described as follows: Mouse pharmacokinetic study, oral administration. The class given is in vivo. As to conditions: male, C57BL/6, mouse, plasma, po, 100 mg/kg, plasma, male C57BL/6 mice, oral gavage 100 mg/kg. A digest of the protocol: as §2

A word on the IC50: it is the point on the concentration scale where inhibition reaches its midpoint.

With `C=C(CC(=O)O[C@@H](C)CCCCCC)C(=O)OCC(=O)O` [Example 89, (S)-2-((2-methylene-4-(octan-2-yloxy)-4-oxobutanoyl)oxy)acetic acid], the results for the IC50 in series [1] and in series [2] were 17.5 µM and 12.6 µM, respectively. In addition, the concentration at 0.05 h in series [3] (time 0.05 h) turned out to be 27800 ng/mL. The concentration at 0.133 h in series [3] (time 0.133 h) came out at 12400 ng/mL. In addition, the concentration at 0.25 h in series [3] (time 0.25 h) was 7680 ng/mL; in series [4] (0.25 h, read-out: Parent compound concentrations following oral administration, Time 0.25 h), 39100 ng/mL. For the same compound, the concentration at 0.5 h came out at 2300 ng/mL in series [3] (time 0.5 h) and 28500 ng/mL in series [4] (0.5 h, read-out: Parent compound concentrations following oral administration, Time 0.5 h). For the same compound, the concentration at 1 h in series [3] (time 1 h) amounted to 430 ng/mL; in series [4] (1 h, read-out: Parent compound concentrations following oral administration, Time 1 h), 14000 ng/mL. In addition, the concentration at 2 h in series [3] (time 2 h) is 65 ng/mL; in series [4] (2 h, read-out: Parent compound concentrations following oral administration, Time 2 h) it was 4740 ng/mL. Besides, the concentration at 4 h worked out at 6.8 ng/mL in series [3] (time 4 h) and 918 ng/mL in series [4] (4 h, read-out: Parent compound concentrations following oral administration, Time 4 h). In addition, the concentration at 6 h in series [3] (time 6 h) is less than 4 ng/mL; in series [4] (6 h, read-out: Parent compound concentrations following oral administration, Time 6 h), 582 ng/mL. The concentration at 8 h was less than 4 ng/mL in series [3] (time 8 h) and 16 ng/mL in series [4] (8 h, read-out: Parent compound concentrations following oral administration, Time 8 h). For the same compound, the concentration at 0.083 h in series [4] (0.083 h, read-out: Parent compound concentrations following oral administration, Time 0.083 h) stood at 44000 ng/mL. The concentration at 24 h in series [4] (24 h, read-out: Parent compound concentrations following oral administration, Time 24 h) came out at 6.8 ng/mL.
